Measured values reported in patent US20070172469A1, “Methods For Inhibiting Viral Replication In Vivo” (priority 2002, published 2007).
pIC50: −log10 of the molar value. Read-outs that look alike come from different tables or passages of the source.

Key:
HCV [1] = assay: In vitro HCV RNA replication assay in AVA5 cells (dot blot); format: cell-based, Hepatitis C virus (HCV)
AVA5 cells = assay: Actin mRNA level in AVA5 cells (nonspecific inhibitory activity); format: cell-based, human; conditions: 3 days, ADI-PEG20 0.01 IU/ml, alpha interferon 10 IU/ml, ribavirin 100 μM
[2] = Toxicity in AVA5 cells, neutral red dye uptake; conditions: human, AVA5 cells (HCV RNA replicating cell line derived from Huh7)
HCV [3] = conditions: cited from earlier work
[4] = cited from earlier work
[5] = HCV mRNA levels, AVA5 cells, 3 days
[6] = humans chronically infected with HCV

Compound | pIC50 (HCV [1]; Hepatitis C virus, 72 h, HCV mRNA levels, AVA5 cells, 3 days, read-out: IC50) | IC90 (HCV [1]; Hepatitis C virus, 72 h, HCV mRNA levels, AVA5 cells, 3 days, read-out: IC90) [µM] | inhibition at 100 µM (HCV [1]; Hepatitis C virus, Ava5, 72 h) [%] | mRNA % inhibition of actin (AVA5 cells) [%] | CC50 at 3 days [2] [µM] | % inhibition of HCV (HCV [1]; AVA5 cells, 3 days, ADI-PEG20 0.01 IU/ml, alpha interferon 10 IU/ml, ribavirin 100 μM) [%] | IC50 (HCV [1]; [5]) [IU/ml] | IC90 (HCV [1]; [5]) [IU/ml] | SI (HCV [1]; selectivity index CC50/EC50, AVA5 cells) | patients in whom effective (HCV [3]; [6]) [%] | treatment required to achieve a 50% reduction in HCV titers (HCV [3]; [6]) | patients who initially responded to the therapy (HCV [3]; various clinical trials) | responders who relapsed after the treatment ended (HCV [3]; various clinical trials) [%] | patients with influenza-like illness with fever, chills, myalgias and malaise ([4]; PEG and non PEG formulated versions) | patients with neuropsychiatric complications ([4]; depression, irritability, anxiety) [%] | alopecia ([4]; human, in vivo) [%] | bone marrow suppression with granulocytopenia, anemia or thrombocytopenia ([4]; human, in vivo) [%]
NC(=O)c1ncn([C@@H]2O[C@H](CO)[C@@H](O)[C@H]2O)n1 [ribavirin, 1-β-D-ribo-furanosyl-1,2,4-trizole-3-carboxamide] | < 5.00 | > 10 | 25 | 98 | 74 | – | – | – | – | – | – | – | – | – | – | – | –
alpha interferon | – | – | – | 11 | – | 92 | 2.1 | 9.0 | >4762 | ~50 | 3-6 months | approximately 40% | 70 | up to 82% | ~20 | ~5 | ~5
